Assay results reported in US20200024278A1, “COMPOSITION COMPRISING ANTIBIOTIC COMPOUND AND AN HETEROCYCLIC COMPOUND AND THEIR USE IN PREVENTING OR TREATING BACTERIAL INFECTIONS” (MUTABILIS, priority 2016, published 2020).

What was measured:
Test in all cases: MIC, broth microdilution (CLSI), substance alone or ATB combined with compound at 4 or 8 μg/mL
SAU 29213 = format: cell-based, S. aureus; conditions: for MIC ATB combined with Example / MIC ATB combined with Example compound: SAU 29213; for MIC ATB combined with Example: Example @8 μg/ml; for MIC ATB combined with Example compound: compound @8 μg/ml
Procedure, shortened: (§1)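 Per CLSI-M7-A7, MICs are determined in cation-adjusted Mueller-Hinton broth with a final inoculum of 5·10^5 CFU/mL. Plates incubate 16-20 h at 35° C in air and are read by eye. Fosfomycin assays carry 25 μg/ml glucose-6-phosphate.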

KPN 6299 = format: cell-based, K. pneumoniae; conditions: for MIC ATB combined with Example: Example @8 μg/ml
Procedure, shortened: as §1

KPN BAA-1898 = format: cell-based, K. pneumoniae; conditions: KPN BAA-1898; for MIC ATB combined with Example: Example @8 μg/ml
Procedure, shortened: as §1

KPN UFR42 = format: cell-based, K. pneumoniae; conditions: KPN UFR42; for MIC ATB combined with Example: Example @8 μg/ml; for MIC ATB combined with Example compound: compound @8 μg/ml
Procedure, shortened: as §1

ECO UFR39 = format: cell-based, E. coli; conditions: ECO UFR39; for MIC ATB combined with Example: Example @8 μg/ml; for MIC ATB combined with Example compound: compound @8 μg/ml
Procedure, shortened: as §1

ECO 190317 = format: cell-based, E. coli; conditions: ECO 190317; for MIC ATB combined with Example: Example @8 μg/ml
Procedure, shortened: as §1

PAE UFR48 = format: cell-based, P. aeruginosa; conditions: PAE UFR48; for MIC ATB combined with Example: Example @8 μg/ml; for MIC ATB combined with Example compound: compound @8 μg/ml
Procedure, shortened: as §1

PAE 105250 = format: cell-based, P. aeruginosa; conditions: PAE 105250; for MIC ATB combined with Example: Example @8 μg/ml; for MIC ATB combined with Example compound: compound @8 μg/ml
Procedure, shortened: as §1

PAE UFR90 = format: cell-based, P. aeruginosa; conditions: PAE UFR90; for MIC ATB combined with Example: Example @8 μg/ml; for MIC ATB combined with Example compound: compound @8 μg/ml
Procedure, shortened: as §1

ECL P99 = format: cell-based, E. cloacae; conditions: ECL P99; for MIC ATB combined with Example: Example @8 μg/ml
Procedure, shortened: as §1

SPN 49619 = format: cell-based, S. pneumoniae; conditions: SPN 49619; for MIC ATB combined with Example: Example @8 μg/ml; for MIC ATB combined with Example compound: compound @8 μg/ml
Procedure, shortened: as §1

[1] = Escherichia coli, substance alone, read-out: MIC

MIC ATB combined with Example (SAU 29213; ATB ATM): <0.031 µg/mL
MIC ATB combined with Example (SAU 29213; ATB FEP): <0.031 µg/mL
MIC ATB combined with Example (SAU 29213; ATB FOS): <0.125 µg/mL
MIC ATB combined with Example (SAU 29213; ATB MEM): <0.031 µg/mL
MIC ATB combined with Example (SAU 29213; ATB PIP): <0.031 µg/mL
MIC ATB combined with Example compound (SAU 29213; MIC of CIP): <0.031 µg/mL
MIC ATB combined with Example compound (SAU 29213; MIC of CLI): <0.0010 µg/mL
MIC ATB combined with Example compound (SAU 29213; MIC of CPO): <0.031 µg/mL
MIC ATB combined with Example compound (SAU 29213; MIC of DAP): <0.0020 µg/mL
MIC ATB combined with Example compound (SAU 29213; MIC of ERY): <0.0020 µg/mL
MIC ATB combined with Example compound (SAU 29213; MIC of LZD): <0.0078 µg/mL
MIC ATB combined with Example compound (SAU 29213; MIC of RIF): <0.00012 µg/mL
MIC ATB combined with Example compound (SAU 29213; MIC of SYN): <0.0020 µg/mL
MIC ATB combined with Example compound (SAU 29213; MIC of VAN): <0.0039 µg/mL
MIC (SAU 29213; Staphylococcus aureus, substance alone, SAU 29213 (MSSA 29213), read-out: MIC): 4 µg/mL
MIC ATB combined with Example (KPN 6299; ATB ATM): <0.031 µg/mL
MIC ATB combined with Example (KPN 6299; ATB FEP): <0.031 µg/mL
MIC ATB combined with Example (KPN 6299; ATB FOS): <0.125 µg/mL
MIC ATB combined with Example (KPN 6299; ATB MEM): <0.031 µg/mL
MIC ATB combined with Example (KPN 6299; ATB PIP): <0.031 µg/mL
MIC ATB combined with Example compound (KPN 6299; MIC of CIP, compound @8 μg/ml): <0.031 µg/mL
MIC ATB combined with Example (KPN BAA-1898; ATB ATM): <0.031 µg/mL
MIC ATB combined with Example (KPN BAA-1898; ATB FEP): <0.031 µg/mL
MIC ATB combined with Example (KPN BAA-1898; ATB FOS): <0.125 µg/mL
MIC ATB combined with Example (KPN BAA-1898; ATB MEM): <0.031 µg/mL
MIC ATB combined with Example (KPN BAA-1898; ATB PIP): <0.031 µg/mL
MIC (KPN BAA-1898; Klebsiella pneumoniae, BAA1898, substance alone, read-out: MIC): 4 µg/mL
MIC ATB combined with Example compound (KPN BAA-1898; MIC of CIP, compound @8 μg/ml): <0.031 µg/mL
MIC ATB combined with Example (KPN UFR42; ATB ATM): <0.031 µg/mL
MIC ATB combined with Example (KPN UFR42; ATB FEP): <0.031 µg/mL
MIC ATB combined with Example (KPN UFR42; ATB FOS): <0.125 µg/mL
MIC ATB combined with Example (KPN UFR42; ATB MEM): <0.031 µg/mL
MIC ATB combined with Example (KPN UFR42; ATB PIP): <0.031 µg/mL
MIC (KPN UFR42; Klebsiella pneumoniae, substance alone, read-out: MIC): 8 µg/mL
MIC ATB combined with Example compound (KPN UFR42; MIC of CIP): <0.031 µg/mL
MIC ATB combined with Example compound (KPN UFR42; MIC of CPO): <0.031 µg/mL
MIC ATB combined with Example (ECO UFR39; ATB ATM): <0.031 µg/mL
MIC ATB combined with Example (ECO UFR39; ATB FEP): <0.031 µg/mL
MIC ATB combined with Example (ECO UFR39; ATB FOS): <0.125 µg/mL
MIC ATB combined with Example (ECO UFR39; ATB MEM): <0.031 µg/mL
MIC ATB combined with Example (ECO UFR39; ATB PIP): <0.031 µg/mL
MIC (ECO UFR39; [1]): 2 µg/mL
MIC ATB combined with Example compound (ECO UFR39; MIC of CIP): <0.031 µg/mL
MIC ATB combined with Example compound (ECO UFR39; MIC of CPO): <0.031 µg/mL
MIC ATB combined with Example (ECO 190317; ATB ATM): <0.031 µg/mL
MIC ATB combined with Example (ECO 190317; ATB FEP): <0.031 µg/mL
MIC ATB combined with Example (ECO 190317; ATB FOS): <0.125 µg/mL
MIC ATB combined with Example (ECO 190317; ATB MEM): <0.031 µg/mL
MIC ATB combined with Example (ECO 190317; ATB PIP): <0.031 µg/mL
MIC (ECO 190317; [1]): 1 µg/mL
MIC ATB combined with Example compound (ECO 190317; MIC of CIP, compound @8 μg/ml): <0.031 µg/mL
MIC ATB combined with Example (PAE UFR48; ATB ATM): 8 µg/mL
MIC ATB combined with Example (PAE UFR48; ATB FEP): 16 µg/mL
MIC ATB combined with Example (PAE UFR48; ATB FOS): 32 µg/mL
MIC ATB combined with Example (PAE UFR48; ATB MEM): 0.25 µg/mL
MIC ATB combined with Example (PAE UFR48; ATB PIP): 16 µg/mL
MIC ATB combined with Example compound (PAE UFR48; MIC of CIP): 4 µg/mL
MIC ATB combined with Example compound (PAE UFR48; MIC of CPO): >32 µg/mL
MIC ATB combined with Example (PAE 105250; ATB ATM): 8 µg/mL
MIC ATB combined with Example (PAE 105250; ATB FEP): 4 µg/mL
MIC ATB combined with Example (PAE 105250; ATB FOS): >128 µg/mL
MIC ATB combined with Example (PAE 105250; ATB MEM): 2 µg/mL
MIC ATB combined with Example (PAE 105250; ATB PIP): 32 µg/mL
MIC ATB combined with Example compound (PAE 105250; MIC of CIP): 0.125 µg/mL
MIC ATB combined with Example compound (PAE 105250; MIC of CPO): 8 µg/mL
MIC ATB combined with Example (PAE UFR90; ATB ATM): 16 µg/mL
MIC ATB combined with Example (PAE UFR90; ATB FEP): 4 µg/mL
MIC ATB combined with Example (PAE UFR90; ATB FOS): 8 µg/mL
MIC ATB combined with Example (PAE UFR90; ATB MEM): 2 µg/mL
MIC ATB combined with Example (PAE UFR90; ATB PIP): >32 µg/mL
MIC ATB combined with Example compound (PAE UFR90; MIC of CIP): 1 µg/mL
MIC ATB combined with Example compound (PAE UFR90; MIC of CPO): 8 µg/mL
MIC ATB combined with Example (ECL P99; ATB ATM): <0.031 µg/mL
MIC ATB combined with Example (ECL P99; ATB FEP): <0.031 µg/mL
MIC ATB combined with Example (ECL P99; ATB FOS): <0.125 µg/mL
MIC ATB combined with Example (ECL P99; ATB MEM): <0.031 µg/mL
MIC ATB combined with Example (ECL P99; ATB PIP): <0.031 µg/mL
MIC (ECL P99; Enterobacter cloacae, substance alone, read-out: MIC): 4 µg/mL
MIC ATB combined with Example compound (ECL P99; MIC of CIP, compound @8 μg/ml): <0.031 µg/mL
MIC ATB combined with Example (SPN 49619; ATB ATM): <0.031 µg/mL
MIC ATB combined with Example (SPN 49619; ATB FEP): <=0.031 μg/mL
MIC ATB combined with Example (SPN 49619; ATB FOS): 0.5 µg/mL
MIC ATB combined with Example (SPN 49619; ATB MEM): <0.031 µg/mL
MIC ATB combined with Example (SPN 49619; ATB PIP): 0.063 µg/mL
MIC ATB combined with Example compound (SPN 49619; MIC of CIP): 0.031 µg/mL
MIC ATB combined with Example compound (SPN 49619; MIC of CLI): <0.0010 µg/mL
MIC ATB combined with Example compound (SPN 49619; MIC of CPO): <0.031 µg/mL
MIC ATB combined with Example compound (SPN 49619; MIC of DAP): <=0.0020 μg/mL
MIC ATB combined with Example compound (SPN 49619; MIC of ERY): <0.0020 µg/mL
MIC ATB combined with Example compound (SPN 49619; MIC of LZD): <0.0078 µg/mL
MIC ATB combined with Example compound (SPN 49619; MIC of RIF): <=0.00012 μg/mL
MIC ATB combined with Example compound (SPN 49619; MIC of SYN): <=0.0020 μg/mL
MIC ATB combined with Example compound (SPN 49619; MIC of VAN): <0.0039 µg/mL
MIC (SPN 49619; Streptococcus pneumoniae, substance alone, read-out: MIC): 8 µg/mL
Compound: O=C1N2CC(n3cncn3)=CC(C2)N1OS(=O)(=O)[O-].[Na+] (stereo not shown) [Example 14, sodium [7-oxo-3-(1,2,4-triazol-1-yl)-1,6-diazabicyclo[3.2.1]oct-3-en-6-yl] sulfate]
